Assay results: patent publication EP4549575A1 (priority 2023, dated 2025)
Values joined by “and” are separate entries in the source; they are usually repeats but may differ in a detail not shown here. Equal entries are not always repeated. Square brackets hold non-standard residues; d marks the D form. Peptide text beside a SMILES is read from it. βAla = NCCC(=O)O

How the values were obtained:
[1] = Chemical-physical properties (isoelectric point, net charge, solubility in water); format: physicochemical; details: for net charge: at pH 7
[2] = test system: P. viticola; format: in vivo, Plasmopara viticola (Berk. et Curt.) Berl. and De Toni; details: grapevine (Vitis vinifera cv. Pinot noir) leaf discs; mean ± standard deviation vs untreated control; concentration not given
[3] = test system: human kidney proximal tubular cells (HKC-8)
[4] = test system: Agrobacterium tumefaciens GV3101; experiment: Specificity: growth in liquid culture (OD620); format: cell-based; details: 200 µM; LB medium; measured hourly up to 5 h
[5] = test system: P. capsici; format: cell-based, Phytophthora capsici Leonian
[6] = test system: P. ultimum; format: cell-based, Pythium ultimum var. ultimum Trow
[7] = Conformational studies based on circular dichroism; format: physicochemical
Method: Conformational studies based on circular dichroism were performed under different conditions, such as: • 10 mM phosphate buffer, pH 7 • MES buffer 10 mM, pH 6 • Buffer acetate 10 mM, pH 5 • Phosphate buffer 10 mM/TFE (1:1) • TFE (trifluoroethanol)
Conformational studies based on circular dichroism were performed under different conditions such as: • 10 mM phosphate buffer, pH7 • Phosphate buffer 10mM/TFE, pH7 (1:1) • TFE (trifluoroethanol)
Conformational studies based on circular dichroism were performed under different conditions, such as: • 10 mM phosphate buffer, pH7 • MES buffer 10 mM, pH6 • Buffer acetate 10 mM, pH5 • Phosphate buffer 10 mM/TFE, pH7 (1:1) • TFE (trifluoroethanol)
Conformational studies based on circular dichroism were performed under different conditions, such as: • 10 mM phosphate buffer, pH7 • 10mM phosphate buffer/TFE (1:1) • TFE (trifluoroethanol)

[8] = pH 7-TFE: phosphate buffer 10 mM/TFE (1:1)

SMILES | isoelectric point [1] | net charge [1] | solubility in water [1] | P. viticola (IPP - %) [2] | cytotoxicity (cell viability, absorption at 570 nm) [3] | bacterial growth (OD620) [4] | P. capsici (PIC - %) [5] | P. ultimum (IPP - %) [6] | Disordered (%) ([7]; 10 mM phosphate buffer, pH 7) | Helixes (%) ([7]; 10 mM phosphate buffer, pH 7) | Sheets (%) ([7]; 10 mM phosphate buffer, pH 7) | Turns (%) ([7]; 10 mM phosphate buffer, pH 7) | Disordered (%) ([7]; TFE (trifluoroethanol)) | Helixes (%) ([7]; TFE (trifluoroethanol)) | Sheets (%) ([7]; TFE (trifluoroethanol)) | Turns (%) ([7]; TFE (trifluoroethanol)) | Disordered (%) [7, 8] | Helixes (%) [7, 8] | Sheets (%) [7, 8] | Turns (%) [7, 8] | further results
CSCC[C@@H]1NC(=O)[C@H](Cc2c[nH]c3ccccc23)NC(=O)[C@H](CCCNC(=N)N)NC(=O)CCNC(=O)[C@H](CCCNC(=N)N)NC(=O)[C@H](CCCNC(=N)N)NC(=O)[C@H](Cc2ccc(O)cc2)NC(=O)[C@H](C(C)C)NC(=O)[C@H](CC(C)C)NC1=O [CP20, βA-R-W-M-L-V-Y-R-R] (cyclo(LVYRR[βAla]RWM)) | 12.4 pH | +3 | good solubility in water | 89.93 ± 11.69 (b) % | not toxic to human cells | no alteration in bacterial growth | 100% and 100 ± 0 (a) % | 75% and 75.98 ± 4.54 (c) % | 32% | 6% | 40% | 22% | 33% | 10% | 35% | 22% | 34% | 8% | 36% | 22% | Disordered (%) ([7]; MES buffer 10 mM, pH 6): 34%; Helixes (%) ([7]; MES buffer 10 mM, pH 6): 8%; Sheets (%) ([7]; MES buffer 10 mM, pH 6): 37%; Turns (%) ([7]; MES buffer 10 mM, pH 6): 21%; Disordered (%) ([7]; acetate buffer 10 mM, pH 5): 31%; Helixes (%) ([7]; acetate buffer 10 mM, pH 5): 7%; Sheets (%) ([7]; acetate buffer 10 mM, pH 5): 39%; Turns (%) ([7]; acetate buffer 10 mM, pH 5): 23%
CC(C)C[C@@H]1NC(=O)[C@H](CCCNC(=N)N)NC(=O)CNC(=O)CCNC(=O)[C@H](C(C)C)NC(=O)[C@H](CCCNC(=N)N)NC(=O)[C@H](CC(C)C)NC(=O)[C@H](Cc2c[nH]c3ccccc23)NC(=O)[C@H](CCCNC(=N)N)NC1=O [CP32, βA-G-R-L-R-W-L-R-V] (cyclo(GRLRWLRV[βAla])) | 14 pH | +3 | good solubility in water | 95% and 94.92 ± 6.45 (b) % | not toxic to human cells | no alteration in bacterial growth | 89.25 ± 7.35 (b) % | 85% and 85.42 ± 7.28 (b) % | 43% | 5% | 34% | 18% | 47% | 6% | 29% | 18% | 44% | 5% | 33% | 18% | 
